Measurements from patent US20100034766A1, “Malodor Counteracting Compositions” (Givaudan SA, priority 2006, published 2010).
Structures can show the parent of a compound that is named as a salt.

Experiments:
[1] = Malodor reduction potential: headspace GC/MS determination of hexyl amine remaining; details: for % Reduction of hexyl amine: 10 ul hexyl amine
Method: A 1 liter glass headspace collection jar had placed inside it a 25 ml stoppered glass container which contained 0.5 g of a test compound/mixture of compounds as indicated in Table 3. 10 ul of hexyl amine as a representative malodor was injected into the headspace jar. This was left for 15 minutes at 25° C. to equilibrate. One ml/minute of the headspace was drawn for one minute through a Tenax™ headspace trap. The trap was removed and analyzed to determine the initial concentration of the malodor. The glass stopper was removed from the container and the test component and the malodor were left in contact for 60 minutes at 25° C. One ml/minute of the headspace was drawn for one minute through a Tenax™ headspace trap to determine the amount of malodor remaining. The Tenax traps were thermally desorbed into an Agilent 6890 GC/MS to analyze the quantity of hexyl amine. The results are shown in Table 3 below: Following the same procedure described in Example 1, compounds according to formula (B) were mixed with an equal amount of citronellyl methylcrotonate. 0.5 g of the resulting mixture was tested against 10 ul hexyl amine as a representative malodor. Following the same procedure described in Example 1,5-(1-(3,3-dimethyl-cyclohexyl)ethoxy)-5-methylhexan-2-one (compound 10) was mixed with an equal amount of compounds of formula (A). 0.5 g of the resulting mixture was tested against 10 ul hexyl amine as a representative malodor.

[2] = Sensory test of axilla malodor reduction on cotton pads, expert panel, Labeled Magnitude Scale; details: Example 4, Table 6; 0.4 g of 10% ethanol solution of test mixture on pad with 0.5 g of 1% synthetic axilla malodor; expert panel of 5, LMS
Method: Test mixtures of a compound of formula (A) and a compound of formula (B) in the ratio as given in Table 6 (10% ethanol solution) of each was prepared. 0.5 g of a 1% ethanol solution of synthetic axilla malodor was placed onto cotton pads. 0.4 g of the ethanol solution of the test mixtures, respectively, was placed on each axilla malodor treated cotton pad. One pad was left untreated as the control. Each pad was allowed to dry for 15 minutes. The test cotton pads were randomized, and an expert panel of 5 was used to determine the intensity of the malodor. Each panelist was asked to check a box that represented the strength of the axilla malodor using a Labeled Magnitude Scale (LMS) (Barry G. Green, Pamela Dalton, Beverly Cowart, Greg Shaffer, Krystyna Rankin and Jennifer Higgins. Evaluating the Labeled Magnitude Scale for Measuring Sensations of Taste and Smell. Chemical Senses. Vol. 21, pp 323-334, 1996).
The % reduction of malodor was calculated by:
% Reduction=(Mean LMS Control−Mean LMS Test)/Mean LMS Control
A Givaudan fragrance composition containing solvent dipropylene glycol at 20% (Composition A) and a fragrance composition (Composition B) wherein 10% dipropylene glycol are replaced by 10% of a mixture of compound 4 and geranyl:crotonate (1:9); were compared for MOC efficacy using the sensory test described in Example 4.

[3] = Example 1, Table 3, 0.5 g test compound/mixture, 60 minutes contact at 25° C., headspace
[4] = Example 3, Table 5, compound 10 mixed with equal amount of formula (A) compounds, 0.5 g

SMILES | % Reduction of hexyl amine [1, 3] | % Reduction of hexyl amine [1, 4] | % Reduction of hexyl amine ([1]; Example 2, Table 4, formula (B) compounds mixed with equal amount of citronellyl methylcrotonate, 0.5 g) | % Reduction of axilla malodor [2] | effect on the effectiveness of the class A compound (hexyl amine reduction) ([1]; compound 4 in combination with a class A compound, Table 3)
CCCCC(CC)COC(=O)C=Cc1ccc(OC)cc1 (stereo not drawn) [Octyl methyl cinnamate, 2-ethyl-hexyl-para-methoxy-cinnamate] | 54.1% | 58.7% | – | – | –
O=C(C=Cc1ccccc1)OCc1ccccc1 [benzyl cinnamate] | 23.5% | 62.1% | – | – | –
CC(C)=CCCC(C)CCOC(=O)C=C(C)C (stereo not drawn) [citronellyl methylcrotonate, 3,7-dimethyloct-6-enyl 3-methylbut-2-enoate] | 53.6% | – | 61.3% | 51.0% | –
CC(OC(C)(C)COC(=O)C1CC1)C1CCCC(C)(C)C1 (stereo not drawn) [compound 4, cyclopropanecarboxylic acid 2-[1-(3,3-dimethylcyclohexyl)ethoxy]-2-methylpropyl ester] | – | – | – | – | significantly increases the effectiveness
CCCCCCOC(=O)/C=C/C(=O)OCCCCCC [dihexyl fumarate] | 68.7% | 78.1% | – | – | –
C/C=C/C(=O)OC/C=C(\C)CCC=C(C)C [geranyl crotonate] | 64.7% | 71.0% | – | – | –
